Experimental data: US20260083864A1, “CONTRAST AGENTS FOR USE IN DIAGNOSTIC COMPUTED TOMOGRAPHY IMAGING” (Bayer Aktiengesellschaft, priority 2022, published 2026)

How the values were obtained:
[1] = In vivo pharmacokinetics following i.v. administration in rat
Method: Pharmacokinetic parameters of Example 1 and 15 and were determined in male and female rats (Han-Wistar, n=4). […] The samples were digested using strong acidic and oxidizing conditions at elevated temperature following dilution in 1% nitric acid to bring the samples in the quantification range of the method. The lower limit of quantitation amounts to 1 nmol/L for all elements and the upper limit to 1000 nmol/L in the diluted sample.
The fit of the obtained data to a three-compartment model (Phoenix, WinNonlin 6.4, 3-compartment mode) yielded the pharmacokinetic parameters which are shown in Table 8.

OATP1B1 = biological target: T1, OATP1B1 (Homo sapiens, UniProt Q9Y6L6); assay: Uptake into stable transfected OATP1B1 HEK 293 cells; type: cell-based; details: for Uptake into OATP1B1-HEK 293 cells: 40 min incubation, relative to RC1 (Gd-EOB-DTPA); for Inhibition Rifampicine: uptake into OATP1B1-HEK 293 cells
T1 sequence (Q9Y6L6 1-691): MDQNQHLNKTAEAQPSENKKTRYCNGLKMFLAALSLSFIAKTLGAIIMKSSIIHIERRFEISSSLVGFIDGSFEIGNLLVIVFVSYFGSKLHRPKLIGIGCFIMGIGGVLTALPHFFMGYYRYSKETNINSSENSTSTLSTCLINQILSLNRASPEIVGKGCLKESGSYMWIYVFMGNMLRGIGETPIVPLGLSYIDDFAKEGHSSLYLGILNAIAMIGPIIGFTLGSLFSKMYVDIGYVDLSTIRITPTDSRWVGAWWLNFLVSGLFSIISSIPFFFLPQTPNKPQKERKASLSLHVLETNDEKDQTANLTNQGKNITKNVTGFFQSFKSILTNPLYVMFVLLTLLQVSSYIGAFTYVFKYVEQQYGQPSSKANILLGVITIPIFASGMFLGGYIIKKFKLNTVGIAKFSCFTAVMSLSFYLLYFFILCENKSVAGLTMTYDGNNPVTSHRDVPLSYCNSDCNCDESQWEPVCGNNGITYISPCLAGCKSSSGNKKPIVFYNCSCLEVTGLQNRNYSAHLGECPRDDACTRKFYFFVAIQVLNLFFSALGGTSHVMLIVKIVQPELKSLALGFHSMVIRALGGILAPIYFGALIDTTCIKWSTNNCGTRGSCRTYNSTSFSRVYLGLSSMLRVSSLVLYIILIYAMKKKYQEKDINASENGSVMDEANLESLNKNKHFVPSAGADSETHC
Summary of the method: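 Stably transfected OATP1B1 HEK293 cells incubated 40 min without shaking with test item at 100 µM final in transport buffer, in triplicate. Cells then washed with cold PBS; gadoxetate run on the same plate as reference.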

[2] = Partition coefficient (log P butanol/buffer); type: physicochemical; details: 1-butanol / 50 mM Tris-HCl, pH 7.4, room temperature
[3] = tested on: freshly isolated rat hepatocytes; assay: Uptake into freshly isolated rat hepatocytes; details: for Uptake rat hepatocytes: 100 μmol Gd/L, 10 min, 37° C., relative to RC1 (Gd-EOB-DTPA); for Inhibition Rifampicine: rat hepatocyte uptake, test item and Rifampicine 1:1, each 100 μM
Method: After incubation the adherent hepatocytes were washed once with 37° C. Hepes carbonate transport buffer (500 μL/well). The test items and RC1 were prepared from stock solutions (180 to 500 mM concentration) in Hepes carbonate transport buffer at pH 7.4 to reach a final concentration of 100 μmol Gd/L. The specific uptake of the test item or RC1 into rat hepatocytes via OATP1B1 and OATP1B3 was challenged using a known OATP1B1/1B3 inhibitor (Rifampicine, Fa. Sigma R3501, test item and inhibitor 1:1 each 100 μM final concentration). The prepared rat hepatocyte plates were incubated with test solutions (500 μL/well) at 37° C. for 10 min using a thermoshaker (Fa. Grant Bio, PHMP). Triplicates were performed for each test item. After incubating the cells were washed once with cold PBS buffer (Fa. Gibco, Dulbeccos PBS (+)). After washing the intact hepatocytes were lysed by addition of 500 μL cold 0.01% Triton-X 100 in Millipore water for 1 h. […] As a reference standard RC1 is used in the same well plate. The hepatocyte uptake of the test compound is calculated relative to RC1 (resulting in the unit % of RC1).

[4] = tested on: cryopreserved rat hepatocytes; assay: In vitro metabolism in cryopreserved rat hepatocytes; type: in vitro ADME; details: 5 μM, incubation time of 4 h, LC-MS
Method: The in vitro metabolism was investigated in cryopreserved human and rat hepatocytes (Li A P et al. Biomark Med. 2014; 8 (2): 173-83). Cryopreserved human (WSS) and rat hepatocytes (Wistar rat, RWH137, male) were incubated with the test compound (incubation concentration: 5 μM). The amount of remaining compound was related to the initial amount (0 mins). The cells were removed from the liquid nitrogen. The vial was immersed in the 37° C. water bath and shaken gently (by hand) until most of the ice was melted (approx. 90 sec.). The cell suspensions were transferred e.g. into a 50 ml-centrifuge tube and 12 ml of 4° C.-cold buffer (e.g. Krebs-Henseleit or Williams Medium E) were added. The cell suspension was centrifuged at 50×g for 5 mins. The buffer was aspirated, and the cells resuspended in 5 ml of fresh warm buffer. An aliquot of 50 μl was mixed with 200 μl trypan blue to determine the cell density and cell viability. The cell suspension was adjusted to a final concentration of 0.8 Mio hepatocytes per mL. The incubations were performed in 96 well plates (1.2 ml volume, negative control without cells). The 0 min samples were stopped immediately by adding 250 μl of ice-cold methanol. All other samples are shaken on an Heidolph®-rotor during incubation in a 37° C. incubator for the indicated period of 4 hours. Aliquots of the samples were used for analysis. All samples were analyzed using LC-MS at 0 h, 1 h, 2 h and 4 h (exemplary LC-MS: Accucore C-18 column, 30° C., 0.35 mL/min flow rate, solvent A: 10 mM Ammonium formate+5% MeCN, pH4 and solvent B: MeCN+0.1% formic acid; […] injection volume, gradient: 90% A, 10% B, 5 min 70% A and 30% B, 8 min 0% A and 100% B).

plasma proteins [5] = assay: Plasma protein binding, equilibrium dialysis, rat; type: in vitro ADME
Excerpt: (§1) The binding of Example 1 and 15 to plasma proteins of different species (human, dog, monkey, rabbit, mouse and rat) was investigated in vitro by using equilibrium dialysis in reusable 96-well Micro-Equilibrium Dialysis Devices (ht dialysis) (Banker M J et al. J Pharm Sci. 2003 May; 92 (5): 967-74).

[6] = Relaxivity measurements at 1.41 T in human plasma; type: physicochemical; details: 37° C., normalized to Gd
Summary of the method: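 T1 determined by inversion recovery (8 inversion-time steps) and T2 by CPMG sequence, both with relaxation delay ≥5×T1. Each relaxivity used three Gd concentrations between 0.05 and 2 mM. Relaxivities were derived from relaxation rates measured in water and plasma.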

plasma proteins [7] = assay: Plasma protein binding, equilibrium dialysis, human; type: in vitro ADME
Excerpt: as §1

Compound	Uptake into OATP1B1-HEK 293 cells (OATP1B1)	Inhibition Rifampicine (OATP1B1) [% inhibition]	Log P (partition coefficient butanol/buffer) [2]	Uptake rat hepatocytes [3]	Inhibition Rifampicine [3] [% inhibition]	Clplasma Plasma clearance ([1]; dose 25 μmol/kg bw) [mL/min/kg]	Vss Volume of distribution at steady state ([1]; dose 25 μmol/kg bw) [L/kg]	t½ α Half-life, compartment V1 ([1]; dose 25 μmol/kg bw) [min]	t½ β Half-life, compartment V2 ([1]; dose 25 μmol/kg bw) [min]	t½ γ Half-life, compartment V3 ([1]; dose 25 μmol/kg bw) [min]	Metabolites detected [4]	Fraction unbound fu (plasma proteins [5]) [%]	r1 human plasma [6] [L/mmol/s]	Fraction unbound fu (plasma proteins [7]) [%]	also measured
CCOc1ccc(CC(CN(CCN(CC(=O)[O-])CC(=O)[O-])CC(=O)[O-])N(CC(=O)[O-])CC(=O)[O-])cc1.[Gd+3].[Na+].[Na+] (stereo not shown) [RC1, gadoxetate disodium, reference compound]	100 % of RC1	81	−2.12	100 % of RC1	97										AUCnorm Area under the curve ([1]; dose 100 μmol/kg bw): 0.40 kg·h/L; Clplasma Plasma clearance ([1]; dose 100 μmol/kg bw): 40 mL/min/kg; Vss Volume of distribution at steady state ([1]; dose 100 μmol/kg bw): 0.9 L/kg; t½ α Half-life, compartment V1 ([1]; dose 100 μmol/kg bw): 2 min; t½ β Half-life, compartment V2 ([1]; dose 100 μmol/kg bw): 8 min; t½ γ Half-life, compartment V3 ([1]; dose 100 μmol/kg bw): 390 min
CCOc1ccc(CCOCC(C(=O)O)N2CCN(CC(=O)[O-])CCN(CC(=O)[O-])CCN(CC(=O)[O-])CC2)cc1.[Gd+3] (stereo not shown) [Example 1, gadolinium 2,2′,2″-(10-{1-carboxy-2-[2-(4-ethoxyphenyl)ethoxy]ethyl}-1,4,7,10-tetraazacyclododecane-1,4,7-triyl)triacetate]	187 % of RC1	92	−0.98	29 % of RC1	93	26.7	0.4	1.8	13	114	No metabolites were detected	92	6.5	99	AUC∞ Area under the curve ([1]; dose 25 μmol/kg bw): 16 µM·h; AUC∞ Area under the curve ([1]; dose 250 μmol/kg bw): 315 µM·h; Clplasma Plasma clearance ([1]; dose 250 μmol/kg bw): 13 mL/min/kg; Vss Volume of distribution at steady state ([1]; dose 250 μmol/kg bw): 0.2 L/kg; t½ α Half-life, compartment V1 ([1]; dose 250 μmol/kg bw): 3 min; t½ β Half-life, compartment V2 ([1]; dose 250 μmol/kg bw): 11 min; t½ γ Half-life, compartment V3 ([1]; dose 250 μmol/kg bw): 396 min
CCOCCOCCOc1ccc(CCC[C@@H](C(=O)O)N2CCN([C@@H](CO)C(=O)[O-])CCN([C@@H](CO)C(=O)[O-])CCN([C@@H](CO)C(=O)[O-])CC2)cc1.[Gd+3] [Example 15, gadolinium (2S,2′S,2″S)-2,2′,2″-{10-[(1S)-1-carboxy-4-{4-[2-(2-ethoxyethoxy)ethoxy]phenyl}butyl]-1,4,7,10-tetraazacyclododecane-1,4,7-triyl}tris(3-hydroxypropanoate)]		91	−1.00	109 % of RC1	94	45	0.4	3	12	588	No metabolites were detected	71	8.7	86	AUCnorm Area under the curve ([1]; dose 25 μmol/kg bw): 0.38 kg·h/L
CCOCCOCCOc1ccc(CC(C(=O)O)N2CCN(CC(=O)[O-])CCN(CC(=O)[O-])CCN(CC(=O)[O-])CC2)cc1.[Gd+3] (stereo not shown) [Example 2, gadolinium 2,2′,2″-{10-[1-carboxy-2-{4-[2-(2-ethoxyethoxy)ethoxy]phenyl}ethyl]-1,4,7,10-tetraazacyclododecane-1,4,7-triyl}triacetate]	324 % of RC1	45	−1.63	52 % of RC1	85						No metabolites were detected	>95	6.2	>95	
